# Laboratory results reported in publication PMC6211316, “Synthesis and biological evaluation of 3-arylcoumarin derivatives as potential anti-diabetic agents” (Journal of Enzyme Inhibition and Medicinal Chemistry, 2018).
# Legend:
# [1] = tested on: mice; set-up: method as in PMID 17360155; conditions: cited from earlier work
# [2] = tested on: AGEs formation; test: In vitro inhibitory activity of AGEs formation (bovine serum albumin/glucose); type: biochemical; conditions: mean ± SD (n = 3)
# Description: To prepare the AGEs reaction solution, 10 mg/mL of bovine serum albumin in 50 mM PBS (pH 7.4) was added to 0.2 M glucose, and 0.02% sodium azide was added to prevent bacterial growth. The reaction mixture (3.0 ml) was then mixed with various concentrations (0.5–1000 μg/mL) of the target compounds (1.0 ml) dissolved in DMSO. After incubating at 37 °C for 14 d, the fluorescence intensity of AGE was determined by a fluorospectrophotometer (PE, USA) with excitation and emission wavelengths at 350 nm and 420 nm, respectively. All experiments were run in triplicate. Aminoguanidine hydrochloride was used as a reference compound. The inhibition rate of AGEs formation and the IC50 value of each sample were calculated according to the formula. Inhibition rate %={[(AC−AB)−(AS−ASB)]/(AC−AB)}×100% where AC is the absorbance of control group(1.0 ml glucose +1.0 ml bovine serum albumin +1.0 ml sodium azide +1.0 ml DMSO); AB is the absorbance of blank group(1.0 ml PBS +1.0 ml bovine serum albumin +1.0 ml sodium azide +1.0 ml DMSO); AS is the absorbance of sample group (1.0 ml glucose +1.0 ml bovine serum albumin +1.0 ml sodium azide +1.0 ml target compound solution or Aminoguanidine hydrochloride solution); ASB is the absorbance of sample blank group (1.0 ml PBS +1.0 ml bovine serum albumin +1.0 ml sodium azide +1.0 ml target compound solution or Aminoguanidine hydrochloride solution).
# [3] = tested on: STZ-induced hyperglycemic mice; set-up: method as in PMID 20040119; conditions: 100 mg/kg/day; cited from earlier work
# [4] = DPPH free radical scavenging; conditions: mean ± SD (n = 3)
# Description: The effect of target compounds and vitamin C to scavenge the DPPH free radical was evaluated with the method described by Villano et al.[43] with slight modifications.
# Two millilitres of different concentrations of the sample solution was added to 2.0 ml of DPPH solution (0.04 mg/mL), shaken and allowed to react at room temperature for 30 min. The absorbance value was measured at 517 nm with an ultraviolet-visible spectrophotometer. The blank reference cuvette contained absolute ethanol. All measurements were performed in triplicate. IC50 values were calculated. The percentage of DPPH radical scavenging rate of the target compound is calculated as follows: DPPH free radical scavenging effect (%)=[A0−(A1−A2)]/A0×100% where A0 is the absorbance of 2.0 ml DPPH solution +2.0 ml absolute ethanol; A1 is the absorbance of 2.0 ml DPPH solution +2.0 ml 3-arylcoumarins solution or standard; A2 is the absorbance of 2.0 ml 3-arylcoumarins solution or standard +2.0 ml absolute ethanol.
# [5] = hydroxyl radical scavenging; conditions: mean ± SD (n = 3), read-out: OH IC50 Value
# Description: The ability of the target compounds and vitamin C to scavenge the hydroxyl radical was evaluated with method described by Ismaili et al.[29] with slight modifications. In test tube, 1.0 ml H2O2 solution (0.03%), 1.0 ml FeSO4 solution (2 mmol.L^−1), 1.0 ml salicylic acid solution (10 mmol.L^−1) and 1.0 ml of 3-arylcoumarins and standard water solution with different concentration (0.4–2.0 mg/mL) were mixed. Finally, 1.0 ml H2O2 solution (0.03%) was added to this mixture to start the reaction. Solutions were kept at 37 °C. After 30 min, the absorbance was measured at 510 nm against the reagent blank, where the distilled water was substituted for the H2O2 solution. The percentage of OH scavenging by target compounds and vitamin C was calculated the following equation: OH scavenging effect (%)=[A0−(A1−A2)]/A0×100% where A0 is the absorbance of 1.0 ml distilled water +1.0 ml H2O2 + 1.0 ml FeSO4 + 1.0 ml salicylic acid +1.0 ml H2O2; A1 is the absorbance of 1.0 ml 3-arylcoumarins or standard +1.0 ml H2O2 + 1.0 ml FeSO4 + 1.0 ml salicylic acid +1.0 ml H2O2; A2 is the absorbance of 1.0 ml 3-arylcoumarins or standard +1.0 ml H2O2 + 1.0 ml FeSO4 + 1.0 ml absolute absolute ethanol +1.0 ml H2O2.
# [6] = target: T1, α-Glucosidase (Saccharomyces cerevisiae, UniProt P53341); test: biochemical; type: biochemical
# T1 construct: purchased Sigma Aldrich G0660-750UN
# Description: α-Glucosidase (G0660-750UN, Sigma Aldrich) and 4-Nitrophenyl α-D-glucopyranoside (PNPG, Macklin) were dissolved in phosphate buffer (pH 6.8, 100 mM), and the test compounds were dissolved in DMSO solution. The experiment was divided into blank group, control group, sample blank group, and sample group. The reagents were loaded in 96-well plates at the dose of the table (Table 8). The solution was bathed in 37 °C water for 10 min, and then enzyme solution was added. After reaction at 37 °C for 20 min, 70 μL Na2CO3 solution ([…]) was added to stop the reaction. All experiments were run in triplicate. […] Since PNPG can produce glucose and p-Nitrophenol (PNP) under the action of α-glucosidase, PNP has the greatest absorption at 405 nm. The absorbance was determined by the microplate reader, and the inhibition rate of α-glucosidase and the IC50 value of each sample were calculated according to the formula. Inhibition rate %={[(AC−AB)−(AS−ASB)]/(AC−AB)}×100% where AC is the absorbance of control group; AB is the absorbance of blank group; AS is the absorbance of sample group; ASB is the absorbance of sample blank group.
# [7] = Oral toxicity to mice (Lorke's method); conditions: both sexes, mouse, in vivo, Kunming mice, observed 14 days
# Description: With reference to Lorke’s method, kunming mice were used as targets to estimate the oral toxicity of each compound to mice. We select compounds 11, 17, 25, 28, and 35 at concentrations of 10, 100, and 1000 mg/kg to test their oral toxicity in the first phase, and 1600, 2900, and 5000 mg/kg at the second phase.
# Experiments were performed on Kunming mice (male and female half, bw range, 25–30 g). Mice were housed in a climate and light controlled room with a 12 h light/dark cycle. Twelve hours before experiments, food was withheld, but animals had free access to drinking water. The compounds were suspended in vehicle (Tween-80, 0.2% in saline). The concentrations were adjusted to orally administrate 0.2 ml/10 g of bw. Mice were treated in two phases. In the first, intragastric doses of 10, 100 and 1000 mg/kg of bw of compounds were administered. On the second, the doses were adjusted to 1600, 2900, and 5000 mg/kg of bw of compounds. In both phases, mice were observed daily in a period of 14 days for mortality, toxic effects and/or changes in behavioural pattern. At the end of the experiments, the mice were sacrificed in a CO2 chamber.
# [8] = tested on: STZ-diabetic mice; test: Acute hypoglycemic assay in STZ-diabetic mice; type: in vivo; conditions: STZ-diabetics mice
# Description: Type II diabetes mellitus was induced in mice by a single intraperitoneal injection of freshly prepared STZ (Sigma Aldrich) dissolved in 0.1M citrate buffer, pH 4.5, in a volume of 110 mg/kg of bw. After 7 days of STZ administration, blood glucose levels of each mouse were determined. Mice with blood glucose levels higher than 11 mM were considered diabetic and were included in the study.
# STZ-induced diabetic mice and normal mice were placed in single cages with wire-net floors and deprived of food for 12 h before experimentation but allowed free access to tap water throughout. The compounds (at the doses of 10, 30, and 100 mg/kg of bw) were suspended in 0.05% Tween-80 in saline solution. Glibenclamide (10 mg/kg of bw) was suspended in the same vehicle. The target compounds were freshly prepared immediately before experimentation and administered by the intragastrical route at the doses of 10 ml/kg of bw. Control mice received only the vehicle (0.05% Tween-80 in saline solution) by the same route. Blood glucose levels were measured at 0, 1.5, 3, 5, 7, and 9 h after drugs administration.
# T1 sequence (P53341 whole entry): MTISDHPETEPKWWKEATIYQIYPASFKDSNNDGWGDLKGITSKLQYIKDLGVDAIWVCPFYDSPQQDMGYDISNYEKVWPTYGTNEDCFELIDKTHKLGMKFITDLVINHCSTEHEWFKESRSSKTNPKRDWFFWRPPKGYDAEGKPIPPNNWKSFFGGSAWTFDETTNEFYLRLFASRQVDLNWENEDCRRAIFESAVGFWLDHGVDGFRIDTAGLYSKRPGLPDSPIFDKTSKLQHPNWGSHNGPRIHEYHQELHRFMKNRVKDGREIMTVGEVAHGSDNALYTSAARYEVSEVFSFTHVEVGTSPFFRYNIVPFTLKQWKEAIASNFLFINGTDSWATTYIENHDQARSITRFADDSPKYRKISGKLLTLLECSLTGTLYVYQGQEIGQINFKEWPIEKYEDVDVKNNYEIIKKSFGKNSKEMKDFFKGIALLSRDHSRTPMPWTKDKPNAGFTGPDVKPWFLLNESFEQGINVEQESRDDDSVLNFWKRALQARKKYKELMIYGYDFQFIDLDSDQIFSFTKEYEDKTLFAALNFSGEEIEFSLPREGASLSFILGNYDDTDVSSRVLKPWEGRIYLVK
compound,measurement,setting,value
NCCS(=O)(=O)O [taurine],protection against STZ-induced elevation in the plasma glucose levels,[1],only a marginal to moderate protection
"N=C(N)NN [AG, amino guanidine, reference compound]",IC50,[2],270 ± 7.19 µM
same,effect on STZ-induced hyperglycemic mice,[3],no significant effect
"O=C1O[C@H]([C@@H](O)CO)C(O)=C1O [Vitaminc, Vitamin C, reference compound]",IC50,[4],19.6 ± 1.88 µM
same,IC50,[4]; listed as Vitamin C,34.9 ± 0.85 µM
same,IC50,[5],788 ± 15.7 µM
same,protection against STZ-induced elevation in the plasma glucose levels,[1],only a marginal to moderate protection
"O=c1oc2cc(O)cc(O)c2cc1-c1ccc(O)cc1 [Compound 28, 5,7-Dihydroxy-3-(4-hydroxyphenyl)-coumarin]",IC50,[4],41.51 ± 0.18 µM
same,IC50,[5],> 1000 µM
same,α-glucosidase inhibitory activity (in words),[6]; in vitro,moderate to excellent inhibitory activity
same,IC50,"[6]; mean ± SD (n = 3), read-out: α-Glucosidase inhibitory activity IC50 Value",1.37 ± 0.15 µM
same,LD50 at 14 days,[7],> 5000 mg/kg
same,Blood glucose concentration,"[8]; 10 mg/kg of bw per os, 0h",15.3 ± 3.8 mM
same,% Variation of glycemia,"[8]; 10 mg/kg of bw per os, 1.5h",(−3.27) %
same,Blood glucose concentration,"[8]; 10 mg/kg of bw per os, 1.5h",14.8 ± 5.8 mM
same,% Variation of glycemia,"[8]; 10 mg/kg of bw per os, 3h",(−25.49) %
same,Blood glucose concentration,"[8]; 10 mg/kg of bw per os, 3h",11.4 ± 4.2 mM
same,% Variation of glycemia,"[8]; 10 mg/kg of bw per os, 5h",(−41.83) %
same,Blood glucose concentration,"[8]; 10 mg/kg of bw per os, 5h",8.9 ± 2.6 mM
same,% Variation of glycemia,"[8]; 10 mg/kg of bw per os, 7h",(−58.17) %
same,Blood glucose concentration,"[8]; 10 mg/kg of bw per os, 7h",6.4 ± 1.6 mM
same,% Variation of glycemia,"[8]; 10 mg/kg of bw per os, 9h",(−54.25) %
same,Blood glucose concentration,"[8]; 10 mg/kg of bw per os, 9h",7.0 ± 2.4 mM
same,Blood glucose concentration,"[8]; 30 mg/kg of bw per os, 0h",18.2 ± 6.7 mM
same,% Variation of glycemia,"[8]; 30 mg/kg of bw per os, 1.5h",(−18.13) %
same,Blood glucose concentration,"[8]; 30 mg/kg of bw per os, 1.5h",14.9 ± 6.6 mM
same,% Variation of glycemia,"[8]; 30 mg/kg of bw per os, 3h",(−25.82) %
same,Blood glucose concentration,"[8]; 30 mg/kg of bw per os, 3h",13.5 ± 6.1 mM
same,% Variation of glycemia,"[8]; 30 mg/kg of bw per os, 5h",(−30.22) %
same,Blood glucose concentration,"[8]; 30 mg/kg of bw per os, 5h",12.7 ± 6.7 mM
same,% Variation of glycemia,"[8]; 30 mg/kg of bw per os, 7h",(−43.41) %
same,Blood glucose concentration,"[8]; 30 mg/kg of bw per os, 7h",10.3 ± 5.6 mM
same,% Variation of glycemia,"[8]; 30 mg/kg of bw per os, 9h",(−59.89) %
same,Blood glucose concentration,"[8]; 30 mg/kg of bw per os, 9h",7.3 ± 4.5 mM
same,Blood glucose concentration,"[8]; 100 mg/kg of bw per os, 0h",18.2 ± 4.1 mM
same,% Variation of glycemia,"[8]; 100 mg/kg of bw per os, 1.5h",(−4.95) %
same,Blood glucose concentration,"[8]; 100 mg/kg of bw per os, 1.5h",17.3 ± 6.7 mM
same,% Variation of glycemia,"[8]; 100 mg/kg of bw per os, 3h",(−28.57) %
same,Blood glucose concentration,"[8]; 100 mg/kg of bw per os, 3h",13.0 ± 6.6 mM
same,% Variation of glycemia,"[8]; 100 mg/kg of bw per os, 5h",(−39.56) %
same,Blood glucose concentration,"[8]; 100 mg/kg of bw per os, 5h",11.0 ± 6.4 mM
same,% Variation of glycemia,"[8]; 100 mg/kg of bw per os, 7h",(−35.17) %
same,Blood glucose concentration,"[8]; 100 mg/kg of bw per os, 7h",11.8 ± 6.0 mM
same,% Variation of glycemia,"[8]; 100 mg/kg of bw per os, 9h",(−43.96) %
same,Blood glucose concentration,"[8]; 100 mg/kg of bw per os, 9h",10.2 ± 4.6 mM
